In US7666414B2, “Methods for treating prostate cancer using modified antibodies to prostate-specific membrane antigen” (Cornell Research Foundation, Inc., priority 2001, dated 2010):
Where two headings read alike, the source gives them in different places.

Experiments:
[1] = test system: PSMA-positive human LNCaP tumors; assay: Biodistribution of 131I labeled MAbs in nude mice bearing LNCaP tumors; settings: mouse, in vivo
Procedure: (§1) Prior to use, the cells were trypsinized, counted and suspended in Matrigel (Collaborative Biomedical Products, Bedford, Mass.). Nu/Nu Balb C mice 8-10 weeks of age were inoculated, in the right and left flanks, with a suspension of 5×10^6 LNCaP cells in Matrigel (BD Biosciences, Bedford Mass.). After a period of 14-18 days, tumors (100-300 mg) had developed. The PSMA-negative DU145 and PC3 cells were implanted in nude mice in an identical manner.
(§2) The PSMA-positive and PSMA-negative tumor bearing mice were injected, via the tail vein, with 80 KBq of the iodinated MAb (400 MBq/mg) in 200 μL of PBS (pH 7.4, 0.2% BSA). Groups of animals (3-8/group) were sacrificed after 2, 4 or 6 days. The major organs and tumors were recovered. The tissue samples were weighed and counted, with appropriate standards in an automatic NaI(Tl) counter. These measured relative activity data (cpm) were background corrected and expressed as a percentage of the injected dose per gram (% ID/g). […] J415, J591 and 7E11 were labeled with ^111In (100 MBq/mg). 80 KBq of the ^111In labeled MAbs were injected in groups of animals. The % ID/g in various organs and tumor tissues was determined at 2-6 days post injection in a similar way as described for ^131I labeled MAbs.

[2] = test system: PSMA-positive human LNCaP tumors; set-up: species or system nude mice; settings: mouse, in vivo
Procedure: as §1, §2
For the imaging studies, animals were injected with 2 MBq of ^111In-DOTA-J591. […]

prostate cancer = settings: in vivo
Procedure: A single patient was treated with mAb deJ591. This patient had bulky, poorly differentiated prostate cancer and had failed multiple courses of external beam radiotherapy as well as multiple forms of hormonal and non-hormonal chemotherapy. […] Four doses (#1, 3, 6 and 11) were trace-radiolabeled with either ^131Iodine or ^111Indium for pharmacokinetic determinations and biodistribution. The mean effective serum residence time of ^131I-deJ591 ranged from 31.9 to 51.3 hours, depending on the dose. Tumor localization to known tumor sites was excellent after each of the radiolabeled doses over the five month period. Dose twelve was radiolabeled with a therapeutic quantity of ^90Yttrium (19mCi) calculated to deliver less than a 150 rad dose to the blood. This dose was determined in consultation with the FDA and took into account prior radiotherapy delivered by external beam and by 131 Iodine. […] The patient's platelet count dropped to 64,000 (normal: 150,000-300,000) at five weeks post ^90Y-DOTA-deJ591 administration (as an anticipated result of radiation to the bone marrow) prior to spontaneously returning to normal levels. […] The patient experienced no side effects. The patient's PSA declined from 63 at the time of deJ591-DOTA-9Y administration to 36. […] This patient succumbed to their metastatic prostate cancer ten and one-half months after initiating treatment with ^90Y-DOTA-deJ591.

[3] = test system: hormone-refractory prostate cancer metastases; assay: Nuclear imaging with 111In or 177Lu labeled deJ591 versus standard imaging; type: in vivo, human
Procedure: The antibody scans were compared to standard imaging studies (bone, CT or MR scans) obtained on each patient to assess the underlying sensitivity, specificity, and accuracy of deJ591 targeting to metastatic sites. Bony and soft tissue metastases were evaluated independently.

[4] = test system: vascular endothelium of solid tumors; assay: Phase I trial of 111In-DOTA-deJ591 in refractory solid tumor malignancies; type: in vivo; settings: for Plasma clearance (T1/2): human
Description: Eligible patients were those with refractory solid tumor malignancies whose tumor types are known to express PSMA on the neovasculature.
Patients the participated in the study included eight renal cell cancer patients, four bladder cancer patients, two colon cancer patients, and one pancreas cancer patient.

[5] = test system: recurrent prostate cancer; assay: Phase II trial of deJ591 with low-dose subcutaneous IL-2; type: in vivo, human; settings: in combination with daily low-dose subcutaneous IL-2; six patients entered
Procedure: Patients receive daily low-dose subcutaneous rIL-2 (1.2×10^6 IU/m^2/day) on day 1 through day 56. […] IL-2 administration is continued during this period another two weeks afterwards. This 8-week regimen constitutes one cycle of therapy. Patients are evaluated for response at the end of one cycle. Patients who have responded to therapy or have stable disease are eligible for additional cycles of therapy. Additional cycles will be initiated when there is at least two consecutive rises in PSA at least 2 weeks apart. […] The dose of antibody will be adjusted based on additional data analysis of patients treated in this manner.

[6] = test system: PSMA-positive CWR22 xenografts; assay: Efficacy in PSMA-positive CWR22 xenografts; type: in vivo, C.B-17 scid mice
Procedure: (§3) Experiment: Male SCID mice were implanted by serial passage of CWR22 prostate tumor xenograft. […] All treatments were given intravenously. Tumor growth and animal health were continually monitored throughout the study with tumor growth measured every 3 days.
Experiment: Male C.B-17 SCID mice bearing CWR22 xenografts approximately 200 mm^3 in size received IV injections (200 μL constant volume) of the test articles according to the dose and schedule as shown in Table 22.
Male C.B-17 scid mice bearing CWR22 xenografts approximately 200 mm^3 in size received IV injections (200 μL constant volume) of the test articles according to the dose and schedule shown in the Table 23.
The objective of this study was to determine how much the dosing interval could be increased at this dosage before a loss of efficacy in terms of TGD would be observed. […] The growth delays for the other schedules were: q7d, 53.0 days; q21d, 48.0 days; and q28d, 26.9 days. Similar to other studies using the CWR22 xenograft model, no curative responses were observed, with all tumors eventually resuming growth (FIG. 18).
as §3, with “intravenously and on a schedule of every three days for 5 doses.” for “intravenously.”
as §3, with “intravenously and on a schedule of every seven days for 5 doses.” for “intravenously.”

[7] = target: prostate specific membrane antigen (Homo sapiens, UniProt Q04609); assay: Competitive binding sites on PSMA; settings: relative to J591, J533, E99 site
Description: To kill or ablate normal, benign hyperplastic, and cancerous prostate epithelial cells, a first antibody, e.g., a modified antibody, can be conjugated with a prodrug which is activated only when in close proximity with a prodrug activator. The prodrug activator is conjugated with a second antibody, e.g., a second modified antibody according to the present invention, preferably one that binds to a non-competing site on the prostate specific membrane antigen molecule. Whether two modified antibodies bind to competing or non-competing binding sites can be determined by conventional competitive binding assays. […] Monoclonal antibody J415, on the other hand, binds to a binding site that is non-competing with the site to which J591, J533, and E99 bind. Thus, for example, the first modified antibody can be one of J591, J533, and E99, and the second modified antibody can be J415. Alternatively, the first modified antibody can be J415, and the second modified antibody can be one of J591, J533, and E99. Drug-prodrug pairs suitable for use in the practice of the present invention are described in Blakely et al., “ZD2767, an Improved System for Antibody-directed Enzyme Prodrug Therapy That Results in Tumor Regressions in Colorectal Tumor Xenografts,” (1996) Cancer Research, 56:3287-3292, which is hereby incorporated by reference.

LNCaP cells = assay: Immunoreactivity by the method of Lindmo; set-up: species or system human; settings: 111In labeled, binding extrapolated to infinite antigen excess
Procedure: The solutions were incubated at 4° C. for 60 minutes prior to being isolated (by centrifugation) and washed with ice cold PBS. The membranes were then counted in a gamma counter with standards representing the total radioactivity added. The data was plotted using the Lindmo method as the reciprocal of the substrate concentration α-axis) against the reciprocal of the fraction bound (y-axis). The data was then fitted according to a least squares linear regression method (Sigma Plot) and the y intercept taken as the reciprocal of the immunoreactivity. A similar method using membranes derived from LNCaP cells, and subsequent centrifugation isolation of the membranes, gave similar results. The results gave an average immunoreactivity of 72% (see Table 11).
Briefly five test solutions were prepared (in duplicate) containing 10,000 cpm of ^111Indium labeled-DOTA-deJ591 and various amounts of LNCaP cells or cell membranes, in a total test volume of 250 μL of 0.2% BSA 10 mM HEPES. The solutions were incubated at 4° C. for 60 minutes prior to being isolated (by centrifugation) and washed with ice cold PBS. The membranes were then counted in a gamma counter with standards representing the total radioactivity added. The data was plotted using the Lindmo method as the reciprocal of the substrate concentration α-axis) against the reciprocal of the fraction bound (y-axis). The data was then fitted according to a least squares linear regression method (Sigma Plot) and the y intercept used as the reciprocal of the immunoreactivity. The target for immunoreactivity was not less than 75%.

[8] = test system: recurrent, progressing prostate cancer; assay: Phase I trial of 111In-DOTA-deJ591, four weekly doses; type: in vivo, human
Procedure: Patients with recurrent, progressing prostate cancer received four weekly doses of ^111In-DOTA-deJ591. Doses were escalated in cohorts of three patients and ranged from 62.5-500 mg/m2 (total). […] After the first dose, patients were imaged on the day of injection (day 0) and days 1, 2, 4 and 7.
Serum PK, immune reaction and toxicity were evaluated after each dose for a minimum of 12 weeks.

[9] = test system: hormone refractory prostate cancer; type: in vivo, human
Description: All patients had rising PSA levels on three consecutive measurements.

prostate tissue = assay: Immunohistochemistry of DOTA conjugated deJ591
Procedure: Immunohistochemistry was performed on the DOTA conjugated, partially purified, bulk intermediate deJ591.

[10] = four weekly doses, 62.5-500 mg/m2 total

Chain of prostate specific membrane antigen (Q04609 whole entry): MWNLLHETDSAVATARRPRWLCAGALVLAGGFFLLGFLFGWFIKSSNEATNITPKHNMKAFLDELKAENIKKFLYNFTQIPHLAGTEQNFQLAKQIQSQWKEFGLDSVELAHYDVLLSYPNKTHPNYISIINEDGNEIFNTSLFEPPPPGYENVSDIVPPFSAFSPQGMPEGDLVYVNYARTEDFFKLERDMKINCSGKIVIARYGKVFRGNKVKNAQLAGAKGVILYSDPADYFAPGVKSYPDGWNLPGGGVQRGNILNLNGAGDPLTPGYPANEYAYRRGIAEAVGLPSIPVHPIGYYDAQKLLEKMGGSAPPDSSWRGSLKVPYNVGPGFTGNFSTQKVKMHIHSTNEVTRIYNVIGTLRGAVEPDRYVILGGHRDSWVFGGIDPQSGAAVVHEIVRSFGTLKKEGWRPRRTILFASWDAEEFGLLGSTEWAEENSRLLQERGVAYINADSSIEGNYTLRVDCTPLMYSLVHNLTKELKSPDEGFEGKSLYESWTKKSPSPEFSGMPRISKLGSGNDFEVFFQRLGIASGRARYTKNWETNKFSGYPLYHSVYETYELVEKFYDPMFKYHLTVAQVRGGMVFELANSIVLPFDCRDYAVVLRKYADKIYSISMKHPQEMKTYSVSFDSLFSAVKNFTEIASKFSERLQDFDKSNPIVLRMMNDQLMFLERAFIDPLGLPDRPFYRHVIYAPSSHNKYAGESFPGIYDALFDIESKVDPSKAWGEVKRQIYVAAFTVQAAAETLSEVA

Substance: deJ591: deimmunized form of murine anti-PSMA antibody J591, human IgG1/kappa constant regions, NS0 cell line ATCC PTA-3709
- blood activity [1]: significantly lower compared to that of 7E11
- tumor uptake [1]: 8.55±1.29 % injected dose/gram
- blood activity [2]: 2.52±0.16 % ID/g
- human anti-deimmunized antibody (immune) response (prostate cancer): No detectable human anti-deimmunized antibody (immune) response developed
- patients with soft tissue masses accurately targeted ([3]; eight out of nine): 89%
- patients without documented soft tissue metastases with negative mAb scans ([3]; fifteen patients): 100%
- specificity, negative bone scans negative on the deJ591 scan ([3]; seven patients): 100%
- concordance between standard imaging and mAb scans ([3]; soft tissue and bony metastases): 91%
- patients with bone metastases on bone scan accurately targeted ([3]; twelve of fifteen): 80%
- Liver uptake ([4]; 5 mg): 28%+/−14
- Liver uptake ([4]; 10 mg): 17%+/−7
- Liver uptake ([4]; 20 mg): 13%+/−5
- Plasma clearance (T1/2) ([4]; in vivo, 5 mg): 21 ± 11 h
- Plasma clearance (T1/2) ([4]; in vivo, 10 mg): 24 ± 6 h
- Plasma clearance (T1/2) ([4]; in vivo, 20 mg): 37 ± 8 h
- Toxicities [5]: expected and minor
- Tumor Growth Delay ([6]; Comparison II, 12.96 mg/kg, q3dX5): 1.9 days
- effect on CWR22 xenograft tumor growth ([6]; every three days for 5 doses, IV, equimolar to 14.5 mg/kg deJ591-DM1): no significant effect

Substance: J591: murine monoclonal antibody to the extracellular domain of human PSMA, hybridoma ATCC HB-12126
- binding site on the prostate specific membrane antigen molecule [7]: bind to competing binding sites

Substance: ^111In-DOTA-deJ591
- Immunoreactivity (LNCaP cells): 72%
- immune reaction to the antibody [8, 10]: None of the patients developed an immune reaction to the antibody
- toxicity or side effects [8, 10]: Neither this latter patient nor the remaining thirteen patients experienced any toxicity or side effects
- mAb targeting to bony sites ([8]; ten patients with positive bone scans): all ten demonstrated excellent mAb targeting to bony sites
- mAb targeting to soft tissue disease ([8]; three patients with soft tissue disease on CT): two demonstrated mAb targeting to these sites
- false negative imaging in patients who had imagable disease ([9]; four of twenty-two): 18%
- Plasma clearance (T1/2) ([9]; human, in vivo, 20 mg): 34 ± 5 h
- tumor targeting in patients who had imagable disease ([9]; sixteen of twenty-two, 20 mg, 185 MBq): 72.7%
- tumor targeting ([4]; 7 renal cell, 2 bladder, 1 colon cancer): ten of the fifteen patients
- decline in CEA ([4]; a colon cancer patient): 50%
- false negative imaging ([4]; in vivo): five of the fifteen patients
- objective responses ([4]; in vivo): No objective responses occurred

Substance: DOTA conjugated deJ591
- Immunoreactivity (LNCaP cells): 95%
- Immunoreactivity (LNCaP cells; listed as Lot 243101): 95%
- Immunoreactivity (LNCaP cells; listed as Lot BIOV983.2-2): 72%
- Immunohistochemistry specificity and reactivity (prostate tissue): specific to prostate tissue and the reactivity was equivalent to the naked deJ591 antibody
